# Patent publication US11162944B2, “Compositions and methods” (priority 2015, dated 2021)
# Like-named read-outs stand apart in the source and are kept apart here. Marks after values point to notes of the source that are not given here.
# Columns and labels:
# [1] = tested on: biomarker (antibody) in serum samples from patients with symptoms of tuberculosis; format: binding, human
# wild-type BMDCs = experiment: IL-6 secretion by bone marrow-derived dendritic cells, cytokine-specific ELISA; format: cell-based, mice; details: antigens at 100 μg/ml coated on plate, ISO as solvent, FIG. 1
# Experimental: The concentrations of cytokines in the cell-free medium from stimulation of bone marrow-derived dendritic cells were determined using standard cytokine-specific ELISA. BMDCs were generated from mice, by flushing out the femurs of mice into complete medium and pipetting vigorously to make a single-cell suspension. The glycolipids were coated to the bottom of 96 micro-well plates (100 μg/ml). BMDCs were added, and after 6 or 48 hours of incubation the supernatants were harvested.
# The first experiment was the IL-6 secretion by wild-type BMDCs from mice using compounds B, D, C and H (shown below) as antigens at 100 μg/ml, and isopropyl alcohol (ISO) as a solvent. Commercial trehalose-6,6-dimycolate (TDM), lipopolysaccharides (LPS), and trehalose-6,6-dibehenate (TDB) were used as a controls.
structure (smiles),measurement,setting,value
CCCCCCCCCCCCCCCCCCCCCCCC[C@@H](C(=O)OC[C@H]1O[C@H](OC)[C@@H](O)[C@@H]1O)[C@H](O)CCCCCCCCCCCCCCCCC[C@@H]1C[C@@H]1CCCCCCCCCCCCCCCC[C@@H](OC)[C@@H](C)CCCCCCCCCCCCCCCCCC [Antigen B],ELISA absorbance at 492 nm,[1]; serum sample 1 TB+,0.48*
same,ELISA absorbance at 492 nm,[1]; serum sample 2 TB+,0.54*
same,ELISA absorbance at 492 nm,[1]; serum sample 3 TB+,1.10*
same,ELISA absorbance at 492 nm,[1]; serum sample 4 TB+,1.00*
same,ELISA absorbance at 492 nm,[1]; serum sample 5 TB+,0.45*
same,ELISA absorbance at 492 nm,[1]; serum sample 6 TB+,0.97*
same,ELISA absorbance at 492 nm,[1]; serum sample 7 TB+,0.87*
same,ELISA absorbance at 492 nm,[1]; serum sample 8 TB+,0.97*
same,ELISA absorbance at 492 nm,[1]; serum sample 9 TB+,0.62*
same,ELISA absorbance at 492 nm,[1]; serum sample 10 TB−,0.56*
same,ELISA absorbance at 492 nm,[1]; serum sample 11 TB−,0.64*
same,ELISA absorbance at 492 nm,[1]; serum sample 12 TB−,0.44
same,ELISA absorbance at 492 nm,[1]; serum sample 13 TB−,0.56*
same,ELISA absorbance at 492 nm,[1]; serum sample 14 TB−,0.91*
same,ELISA absorbance at 492 nm,[1]; serum sample 15 TB−,0.53*
same,ELISA absorbance at 492 nm,[1]; serum sample 16 TB−,0.52*
same,ELISA absorbance at 492 nm,[1]; serum sample 17 TB−,0.87*
same,ELISA absorbance at 492 nm,[1]; serum sample 18 TB−,0.44
same,ELISA absorbance at 492 nm,[1]; serum sample 19 TB−,0.53*
same,ELISA absorbance at 492 nm,[1]; serum sample 20 TB−,0.63*
same,ELISA absorbance at 492 nm,[1]; serum sample 21 TB−,0.42
same,ELISA absorbance at 492 nm,[1]; serum sample 22 TB−,0.33
same,ELISA absorbance at 492 nm,[1]; serum sample 23 TB−,0.48*
same,ELISA absorbance at 492 nm,[1]; serum sample 24 TB−,0.81*
same,ELISA absorbance at 492 nm,[1]; serum sample 25 TB−,0.23
same,ELISA absorbance at 492 nm,[1]; serum sample 26 TB−,0.64*
same,ELISA absorbance at 492 nm,[1]; serum sample 27 TB−,0.60*
same,ELISA absorbance at 492 nm,[1]; serum sample 28 TB−,0.42
same,ELISA absorbance at 492 nm,[1]; serum sample 29 TB−,0.39
same,ELISA absorbance at 492 nm,[1]; serum sample 30 TB−,0.41
same,ELISA absorbance at 492 nm,[1]; serum sample 31 TB−,0.37
same,ELISA absorbance at 492 nm,[1]; serum sample 32 TB−,0.68*
same,ELISA absorbance at 492 nm,[1]; serum sample 33 TB−,0.36
same,ELISA absorbance at 492 nm,[1]; serum sample 34 TB−,0.47*
same,ELISA absorbance at 492 nm,[1]; serum sample 35 TB−,0.38
same,ELISA absorbance at 492 nm,[1]; serum sample 36 TB−,0.28
same,ELISA absorbance at 492 nm,[1]; serum sample 37 TB−,0.40
same,ELISA absorbance at 492 nm,[1]; serum sample 38 TB−,0.44
same,ELISA absorbance at 492 nm,[1]; serum sample 39 TB−,0.31
same,ELISA absorbance at 492 nm,[1]; serum sample 40 TB−,0.28
same,ELISA absorbance at 492 nm,[1]; serum sample 41 TB−,0.51*
same,ELISA absorbance at 492 nm,[1]; serum sample 42 TB−,0.49*
same,ELISA absorbance at 492 nm,[1]; serum sample 43 TB−,0.28
same,ELISA absorbance at 492 nm,[1]; serum sample 44 TB−,0.60*
same,ELISA absorbance at 492 nm,[1]; serum sample 45 TB−,0.34
same,ELISA absorbance at 492 nm,[1]; serum sample 46 TB−,0.27
same,ELISA absorbance at 492 nm,[1]; serum sample 47 TB−,0.35
same,ELISA absorbance at 492 nm,[1]; serum sample 48 TB−,0.29
same,ELISA absorbance at 492 nm,[1]; serum sample 49 TB−,0.47*
same,ELISA absorbance at 492 nm,[1]; serum sample 50 TB−,0.31
same,ELISA absorbance at 492 nm,[1]; serum sample 51 TB−,0.22
same,ELISA absorbance at 492 nm,[1]; serum sample 52 TB−,0.28
same,ELISA absorbance at 492 nm,[1]; serum sample 53 TB−,0.24
same,ELISA absorbance at 492 nm,[1]; serum sample 54 TB−,0.25
same,ELISA absorbance at 492 nm,[1]; serum sample 55 TB−,0.27
same,ELISA absorbance at 492 nm,[1]; serum sample 56 TB−,0.42
same,ELISA absorbance at 492 nm,[1]; serum sample 57 TB−,0.40
same,ELISA absorbance at 492 nm,[1]; serum sample 58 TB−,0.32
same,ELISA absorbance at 492 nm,[1]; serum sample 59 TB−,0.30
same,ELISA absorbance at 492 nm,[1]; serum sample 60 TB−,0.36
same,ELISA absorbance at 492 nm,[1]; serum sample 61 TB−,0.36
same,ELISA absorbance at 492 nm,[1]; serum sample 62 TB−,0.26
same,ELISA absorbance at 492 nm,[1]; serum sample 63 TB−,0.21
same,ELISA absorbance at 492 nm,[1]; serum sample 64 TB−,2.33*
same,IL-6 secretion by wild-type BMDCs,wild-type BMDCs,good level of stimulation
CCCCCCCCCCCCCCCCCCCCCC[C@@H](C(=O)OC[C@H]1O[C@H](OC)[C@@H](O)[C@@H]1O)[C@H](O)CCCCCCCCCCCCCCC[C@@H]1C[C@@H]1CCCCCCCCCCCCCCCCCCC(=O)C(C)CCCCCCCCCCCCCCCCCC (stereo partly shown) [Antigen C],ELISA absorbance at 492 nm,[1]; serum sample 1 TB+,0.33*
same,ELISA absorbance at 492 nm,[1]; serum sample 2 TB+,0.26*
same,ELISA absorbance at 492 nm,[1]; serum sample 3 TB+,0.44*
same,ELISA absorbance at 492 nm,[1]; serum sample 4 TB+,0.48*
same,ELISA absorbance at 492 nm,[1]; serum sample 5 TB+,0.40*
same,ELISA absorbance at 492 nm,[1]; serum sample 6 TB+,0.39*
same,ELISA absorbance at 492 nm,[1]; serum sample 7 TB+,1.37*
same,ELISA absorbance at 492 nm,[1]; serum sample 8 TB+,0.46*
same,ELISA absorbance at 492 nm,[1]; serum sample 9 TB+,0.35*
same,ELISA absorbance at 492 nm,[1]; serum sample 10 TB−,0.22
same,ELISA absorbance at 492 nm,[1]; serum sample 11 TB−,0.20
same,ELISA absorbance at 492 nm,[1]; serum sample 12 TB−,0.18
same,ELISA absorbance at 492 nm,[1]; serum sample 13 TB−,0.24
same,ELISA absorbance at 492 nm,[1]; serum sample 14 TB−,0.56*
same,ELISA absorbance at 492 nm,[1]; serum sample 15 TB−,0.22
same,ELISA absorbance at 492 nm,[1]; serum sample 16 TB−,0.30*
same,ELISA absorbance at 492 nm,[1]; serum sample 17 TB−,0.57*
same,ELISA absorbance at 492 nm,[1]; serum sample 18 TB−,0.32*
same,ELISA absorbance at 492 nm,[1]; serum sample 19 TB−,0.20
same,ELISA absorbance at 492 nm,[1]; serum sample 20 TB−,0.41*
same,ELISA absorbance at 492 nm,[1]; serum sample 21 TB−,0.41*
same,ELISA absorbance at 492 nm,[1]; serum sample 22 TB−,0.31*
same,ELISA absorbance at 492 nm,[1]; serum sample 23 TB−,0.27*
same,ELISA absorbance at 492 nm,[1]; serum sample 24 TB−,0.53*
same,ELISA absorbance at 492 nm,[1]; serum sample 25 TB−,0.24
same,ELISA absorbance at 492 nm,[1]; serum sample 26 TB−,0.90*
same,ELISA absorbance at 492 nm,[1]; serum sample 27 TB−,0.46*
same,ELISA absorbance at 492 nm,[1]; serum sample 28 TB−,0.42*
same,ELISA absorbance at 492 nm,[1]; serum sample 29 TB−,0.38*
same,ELISA absorbance at 492 nm,[1]; serum sample 30 TB−,0.39*
same,ELISA absorbance at 492 nm,[1]; serum sample 31 TB−,0.51*
same,ELISA absorbance at 492 nm,[1]; serum sample 32 TB−,1.01*
same,ELISA absorbance at 492 nm,[1]; serum sample 33 TB−,0.33*
same,ELISA absorbance at 492 nm,[1]; serum sample 34 TB−,0.52*
same,ELISA absorbance at 492 nm,[1]; serum sample 35 TB−,0.55*
same,ELISA absorbance at 492 nm,[1]; serum sample 36 TB−,0.25
same,ELISA absorbance at 492 nm,[1]; serum sample 37 TB−,0.43*
same,ELISA absorbance at 492 nm,[1]; serum sample 38 TB−,0.43*
same,ELISA absorbance at 492 nm,[1]; serum sample 39 TB−,0.34*
same,ELISA absorbance at 492 nm,[1]; serum sample 40 TB−,0.26*
same,ELISA absorbance at 492 nm,[1]; serum sample 41 TB−,0.44*
same,ELISA absorbance at 492 nm,[1]; serum sample 42 TB−,0.42*
same,ELISA absorbance at 492 nm,[1]; serum sample 43 TB−,0.32*
same,ELISA absorbance at 492 nm,[1]; serum sample 44 TB−,1.32*
same,ELISA absorbance at 492 nm,[1]; serum sample 45 TB−,0.49*
same,ELISA absorbance at 492 nm,[1]; serum sample 46 TB−,0.28*
same,ELISA absorbance at 492 nm,[1]; serum sample 47 TB−,0.56*
same,ELISA absorbance at 492 nm,[1]; serum sample 48 TB−,0.55*
same,ELISA absorbance at 492 nm,[1]; serum sample 49 TB−,0.79*
same,ELISA absorbance at 492 nm,[1]; serum sample 50 TB−,0.38*
same,ELISA absorbance at 492 nm,[1]; serum sample 51 TB−,0.18
same,ELISA absorbance at 492 nm,[1]; serum sample 52 TB−,0.32*
same,ELISA absorbance at 492 nm,[1]; serum sample 53 TB−,0.21
same,ELISA absorbance at 492 nm,[1]; serum sample 54 TB−,0.26*
same,ELISA absorbance at 492 nm,[1]; serum sample 55 TB−,0.31*
same,ELISA absorbance at 492 nm,[1]; serum sample 56 TB−,0.90*
same,ELISA absorbance at 492 nm,[1]; serum sample 57 TB−,0.55*
same,ELISA absorbance at 492 nm,[1]; serum sample 58 TB−,0.44*
same,ELISA absorbance at 492 nm,[1]; serum sample 59 TB−,0.65*
same,ELISA absorbance at 492 nm,[1]; serum sample 60 TB−,0.62*
same,ELISA absorbance at 492 nm,[1]; serum sample 61 TB−,0.76*
same,ELISA absorbance at 492 nm,[1]; serum sample 62 TB−,0.19
same,ELISA absorbance at 492 nm,[1]; serum sample 63 TB−,0.26*
same,ELISA absorbance at 492 nm,[1]; serum sample 64 TB−,0.37*
same,IL-6 secretion by wild-type BMDCs,wild-type BMDCs,no significant stimulation
